Source: patent publication US20100261246A1, “METHOD FOR INHIBITING TELOMERASE REACTION” (PANASONIC CORPORATION, priority 2009, published 2010)

Experiments:
double-stranded DNA = assay: Absorbance 480 to 800 nm of phthalocyanine mixed with double-stranded DNA solution; type: binding; conditions: 15 μM compound solution, DNA 50 μM, pH7
Experimental: A solution of 50 mM HEPES and 100 mM NaCl, pH7 (total volume: 100 μL) containing a single-stranded DNA consisting of a sequence of 5′-AGAAGAGAAAGA-3′ (SEQ ID NO: 4) and a single-stranded DNA consisting of a sequence of 5′-TCTTTCTCTTCT-3′ (SEQ ID NO: 5) at each concentration of 50 μM was prepared, which was incubated at 90° C. for 5 min, and thereafter cooled to 0° C. at a rate of temperature fall of 2° C./min, followed by finally incubating at 0° C. for 2 hrs. Since the aforementioned two kinds of DNAs are complementary to one another, both DNAs form a double-stranded DNA in the solution as a result of the incubation (hereafter, the solution referred to as “double-stranded DNA solution”).
(§1) Next, the aforementioned CuPC solution and single-stranded DNA solution, and the aforementioned CuPC solution and double-stranded DNA solution were similarly mixed, respectively. And then the absorbance of these liquid mixtures was measured at 480 to 800 nm. FIG. 9(A) and FIG. 9(B) show the results of the measurement in the cases of the single-stranded DNA solution and the double-stranded DNA solution, respectively.
as §1, with “NiPC” for “CuPC”, “respectively;” for “respectively. And then”, “11(A)” for “9(A)”, “11(B)” for “9(B)”, “respectively. In each drawing, the result obtained when the NC solution was used is also shown together.” for “respectively.”
as §1, with “PC” for “CuPC”, “respectively;” for “respectively. And then”, “mixture” for “mixtures”, “13(A)” for “9(A)”, “13(B)” for “9(B)”, “respectively. In each drawing, the result obtained when the NC solution was used is also shown together.” for “respectively.”
as §1, with “CoPC” for “CuPC”, “respectively, and” for “respectively. And”, “15(A)” for “9(A)”, “15(B)” for “9(B)”, “respectively. In each drawing, the result obtained when the NC solution was used is also shown together.” for “respectively.”

telomerase = assay: Telomerase reaction carried out first, then PCR of the diluted reaction solution, gel electrophoresis, with or without λDNA; type: biochemical; conditions: final concentrations 0.1 to 10 μM
Experimental: Moreover, effects of inhibiting telomerase by TMPyP and anionic phthalocyanines were compared in Comparative Example 3 and Example 4 to 5 below. In these experiments, the S7700 kit was used similarly to the aforementioned Comparative Examples 1 to 2 and Examples 1 to 3. However, in Comparative Examples 1 to 2 and Examples 1 to 3 described above, the reagents required only for the telomerase reaction and PCR were all mixed first, and the telomerase reaction and PCR were carried out sequentially by regulating the reaction temperature. To the contrary, in the following Comparative Example 3 and Examples 4 to 5, only the reagents required for the telomerase reaction were first mixed to carry out a telomerase reaction, and a part of the reaction solution and the reagents required for the PCR were mixed to carry out the PCR.
In addition, in each of the following Comparative Example 3 and Examples 4 to 5, experiments were carried out with or without addition of a λDNA in the telomerase reaction. Addition of the λDNA was intended to reproduce for mimicking the conditions in which a large amount of double-stranded DNAs are present as in the case of genomic DNAs in cells, and to study the effects of inhibiting telomerase by TMPyP or anionic phthalocyanines even under conditions more approximate to those in vivo, by adding a λDNA.
Telomerase reaction solution in a total volume of 10 μL were prepared by mixing 1 μL of 10× TRAP Reaction buffer, 0.2 μL of 50× dNTP Mix, 0.2 μL of TS primer, 4 μL of the telomerase solution prepared in Comparative Example 1, 2 μL of the TMPyP aqueous solution, and 2.6 μL of milliQ water (the reaction solutions having final TMPyP concentrations of 0 M, 0.1 μM, 0.3 μM, 1 μM, 3 μM and 10 μM were prepared, respectively). Then, the reaction solutions were stood under a condition of 30° C. for 60 min to allow a telomerase reaction to be carried out.
Next, 4 μL of a solution prepared by diluting the solution after the telomerase reaction 20 times with milliQ water, 0.2 μL of 50× dNTP Mix, 0.2 μL of TS primer, 0.2 μL of Primer Mix, 0.1 μL of TaKaLa LA Taq Hot Start Version (manufactured by Takara Bio Inc.), 1 μL of 10× LA PCR buffer II (Mg^2+ plus) (buffer solution included in TaKaLa LA Taq Hot Start Version), and 4.3 μL of milliQ water were mixed to prepare a PCR solution in a total volume of 10 μL. Then, PCR was carried out by allowing this PCR solution to stand under temperature conditions in which a thermo cycle of: 30 sec at 95° C.; 30 sec at 59° C.; and 30 sec at 72° C. was repeated 30 times.
Finally, the solution after the PCR was electrophoresed on a 10% polyacrylamide gel, and stained with GelStar Nucleic Acid Stain (manufactured by Takara Bio Inc.). […] In the order from the leftmost lane, the results with final concentrations of TMPyP being 0 M, 0.1 μM, 0.3 μM, 1 μM, 3 μM and 10 μM are shown.
On the other hand, experiments in which a λDNA was added to the telomerase reaction solution were also carried out. More specifically, in preparing the telomerase reaction solution described above, 2.6 μL of a λDNA solution (manufactured by Takara Bio Inc.) was mixed in place of mixing 2.6 μL of milliQ water. Other telomerase reaction temperature/time schedule, PCR solution preparation condition, PCR temperature/time schedule, electrophoresis condition were just the same.

single-stranded DNA = assay: Absorbance 480 to 800 nm of phthalocyanine mixed with single-stranded DNA solution; type: binding; conditions: 15 μM compound solution, DNA 50 μM, pH7
Experimental: A solution of 50 mM HEPES and 100 mM NaCl, pH7 (total volume: 100 μL) containing a single-stranded DNA consisting of a sequence of 5′-[…]-3′ sequence (SEQ ID NO: 3) at a concentration of 50 μM was prepared, which was incubated at 90° C. for 5 min, and thereafter cooled to 0° C. at a rate of temperature fall of 2° C./min, followed by finally incubating at 0° C. for 2 hrs. The DNA in thus resulting solution was a single-stranded DNA even after the incubation (hereafter, the solution referred to as “single-stranded DNA solution”).
as §1
as §1, with “NiPC” for “CuPC”, “respectively;” for “respectively. And then”, “11(A)” for “9(A)”, “11(B)” for “9(B)”, “respectively. In each drawing, the result obtained when the NC solution was used is also shown together.” for “respectively.”
as §1, with “PC” for “CuPC”, “respectively;” for “respectively. And then”, “mixture” for “mixtures”, “13(A)” for “9(A)”, “13(B)” for “9(B)”, “respectively. In each drawing, the result obtained when the NC solution was used is also shown together.” for “respectively.”
as §1, with “CoPC” for “CuPC”, “respectively, and” for “respectively. And”, “15(A)” for “9(A)”, “15(B)” for “9(B)”, “respectively. In each drawing, the result obtained when the NC solution was used is also shown together.” for “respectively.”

Chain of telomerase (O14746 whole entry): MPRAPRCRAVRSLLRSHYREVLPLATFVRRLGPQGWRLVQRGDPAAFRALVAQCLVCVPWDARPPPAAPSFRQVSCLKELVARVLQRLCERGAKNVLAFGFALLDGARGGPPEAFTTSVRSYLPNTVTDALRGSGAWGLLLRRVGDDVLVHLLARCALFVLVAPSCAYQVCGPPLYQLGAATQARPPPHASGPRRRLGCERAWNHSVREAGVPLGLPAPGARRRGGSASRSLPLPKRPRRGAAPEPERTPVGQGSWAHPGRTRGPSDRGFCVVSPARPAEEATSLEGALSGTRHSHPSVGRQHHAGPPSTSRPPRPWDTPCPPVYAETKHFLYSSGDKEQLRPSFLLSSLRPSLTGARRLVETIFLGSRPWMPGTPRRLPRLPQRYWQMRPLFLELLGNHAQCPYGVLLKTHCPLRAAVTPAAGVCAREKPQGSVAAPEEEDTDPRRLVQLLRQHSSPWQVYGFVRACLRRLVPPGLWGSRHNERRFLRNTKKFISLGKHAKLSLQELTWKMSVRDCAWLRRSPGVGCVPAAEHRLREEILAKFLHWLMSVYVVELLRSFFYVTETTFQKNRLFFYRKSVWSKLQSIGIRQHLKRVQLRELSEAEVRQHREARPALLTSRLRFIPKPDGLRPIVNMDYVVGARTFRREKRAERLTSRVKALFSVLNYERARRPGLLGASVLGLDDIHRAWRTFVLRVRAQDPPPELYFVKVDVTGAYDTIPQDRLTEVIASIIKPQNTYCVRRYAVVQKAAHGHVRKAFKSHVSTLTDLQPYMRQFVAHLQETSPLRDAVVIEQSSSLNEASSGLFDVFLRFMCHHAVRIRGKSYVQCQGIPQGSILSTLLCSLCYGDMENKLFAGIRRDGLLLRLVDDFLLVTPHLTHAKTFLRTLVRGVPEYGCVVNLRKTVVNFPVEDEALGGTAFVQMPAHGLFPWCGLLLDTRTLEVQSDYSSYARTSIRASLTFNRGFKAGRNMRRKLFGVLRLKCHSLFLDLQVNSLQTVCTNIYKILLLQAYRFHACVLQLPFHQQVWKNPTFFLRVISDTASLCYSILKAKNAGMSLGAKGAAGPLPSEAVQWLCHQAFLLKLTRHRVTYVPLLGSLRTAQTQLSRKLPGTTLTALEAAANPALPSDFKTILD

Substance: Copper(II) phthalocyanine-3,4′,4″,4′″-tetrasulfonic acid tetrasodium salt [CuPC]
- interaction with the double-stranded DNA (absorption spectrum vs NC solution) (double-stranded DNA): an interaction did not occur
- inhibition of the telomerase reaction (band of telomerase reaction product) (telomerase; in the presence of λDNA): can efficiently inhibit the telomerase reaction
- inhibition of the telomerase reaction (band of telomerase reaction product) (telomerase; no addition of λDNA): inhibited with higher concentration
- interaction with the single-stranded DNA (absorption spectrum vs NC solution) (single-stranded DNA): an interaction did not occur

Substance: Nickel(II) phthalocyanine tetrasulfonic acid tetrasodium salt [NiPC]
- interaction with the double-stranded DNA (absorption spectrum vs NC solution) (double-stranded DNA): an interaction did not occur
- inhibition of the telomerase reaction (band of telomerase reaction product) (telomerase; in the presence of λDNA): can efficiently inhibit the telomerase reaction
- inhibition of the telomerase reaction (band of telomerase reaction product) (telomerase; no addition of λDNA): inhibited with higher concentration
- interaction with the single-stranded DNA (absorption spectrum vs NC solution) (single-stranded DNA): an interaction did not occur
